Data: patent US20260250290A1 (BRISTOL-MYERS SQUIBB COMPANY, priority 2023, published 2026)
Counter-ions that a name gives are not always drawn.

molecular target: T1, full length SGK1 (Homo sapiens, UniProt O00141); assay: SGK1 inhibition Assay A (Caliper LabChip electrophoretic separation of fluorescent peptide substrate and phosphorylated product); type: biochemical; details: Assay A; 20 μM ATP, 40 min incubation; read-out: SGK1 IC50
T1 construct: 125 μM full length SGK1 (Life Technologies Part #PR7358A); purchased Life Technologies PR7358A
T1 sequence (O00141 1-431): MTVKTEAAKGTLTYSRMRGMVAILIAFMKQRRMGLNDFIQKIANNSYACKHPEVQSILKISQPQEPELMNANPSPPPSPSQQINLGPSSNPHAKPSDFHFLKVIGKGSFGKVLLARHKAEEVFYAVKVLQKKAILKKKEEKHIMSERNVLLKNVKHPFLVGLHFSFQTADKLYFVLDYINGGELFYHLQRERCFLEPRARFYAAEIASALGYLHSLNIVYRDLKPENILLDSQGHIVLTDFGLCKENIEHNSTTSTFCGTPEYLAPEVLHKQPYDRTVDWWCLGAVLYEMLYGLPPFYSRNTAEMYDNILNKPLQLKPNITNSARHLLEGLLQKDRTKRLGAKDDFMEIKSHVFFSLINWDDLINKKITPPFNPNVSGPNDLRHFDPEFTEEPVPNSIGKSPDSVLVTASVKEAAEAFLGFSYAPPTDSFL

| Compound | IC50 |
| --- | --- |
| CC(=O)N1CC=C(c2cc(N3CCC[C@@H](NC(=O)c4cc5c(s4)CCNC5)C3)c3c(N)ncnn23)C1 [Example 815, (R)—N-(1-(7-(1-acetyl-2,5-dihydro-1H-pyrrol-3-yl)-4-aminopyrrolo[2,1-f][1,2,4]triazin-5-yl)piperidin-3-yl)-4,5,6,7-tetrahydrothieno[3,2-c]pyridine-2-carboxamide TFA salt] | 104 nM |
| C#Cc1cc(N2CCC[C@@H](NC(=O)c3ccc(Cl)s3)C2)c2c(N)ncnn12 [Example 862, (R)—N-(1-(4-amino-7-ethynylpyrrolo[2,1-f][1,2,4]triazin-5-yl)piperidin-3-yl)-5-chlorothiophene-2-carboxamide] | 111 nM |
| CC(C)(C)OC(=O)CCn1cc(-c2cc(N3CCC[C@@H](NC(=O)c4ccc(Cl)s4)C3)c3c(N)ncnn23)nn1 [Example 863, tert-butyl (R)-3-(4-(4-amino-5-(3-(5-chlorothiophene-2-carboxamido)piperidin-1-yl)pyrrolo[2,1-f][1,2,4]triazin-7-yl)-1H-1,2,3-triazol-1-yl)propanoate] | 467 nM |
| Nc1ncnn2c(-c3cn(CCC(=O)O)nn3)cc(N3CCC[C@@H](NC(=O)c4ccc(Cl)s4)C3)c12 [Example 864, (R)-3-(4-(4-amino-5-(3-(5-chlorothiophene-2-carboxamido)piperidin-1-yl)pyrrolo[2,1-f][1,2,4]triazin-7-yl)-1H-1,2,3-triazol-1-yl)propanoic acid] | 120 nM |
| NC(=O)Cn1cc(-c2cc(N3CCC[C@@H](NC(=O)c4ccc(Cl)s4)C3)c3c(N)ncnn23)nn1 [Example 865, (R)—N-(1-(4-amino-7-(1-(2-amino-2-oxoethyl)-1H-1,2,3-triazol-4-yl)pyrrolo[2,1-f][1,2,4]triazin-5-yl)piperidin-3-yl)-5-chlorothiophene-2-carboxamide] | 731 nM |
| Nc1ncnn2c(-c3cn(C4CCNC4)nn3)cc(N3CCC[C@@H](NC(=O)c4ccc(Cl)s4)C3)c12 (stereo partly drawn) [Example 866, N-((3R)-1-(4-amino-7-(1-(pyrrolidin-3-yl)-1H-1,2,3-triazol-4-yl)pyrrolo[2,1-f][1,2,4]triazin-5-yl)piperidin-3-yl)-5-chlorothiophene-2-carboxamide] | 517 nM |
| Nc1ncnn2c(-c3cn(CC(=O)O)nn3)cc(N3CCC[C@@H](NC(=O)c4ccc(Cl)s4)C3)c12 [Example 867, (R)-2-(4-(4-amino-5-(3-(5-chlorothiophene-2-carboxamido)piperidin-1-yl)pyrrolo[2,1-f][1,2,4]triazin-7-yl)-1H-1,2,3-triazol-1-yl)acetic acid] | 213 nM |
| Cn1cc(-c2cc(N3CCC[C@@H](NC(=O)c4ccc(Cl)s4)C3)c3c(N)ncnn23)nn1 [Example 868, (R)—N-(1-(4-amino-7-(1-methyl-1H-1,2,3-triazol-4-yl)pyrrolo[2,1-f][1,2,4]triazin-5-yl)piperidin-3-yl)-5-chlorothiophene-2-carboxamide] | 114 nM |
| Nc1ncnn2c(-c3ccc4cnoc4c3)cc(N3CCC[C@@H](NC(=O)c4ccc(Cl)s4)C3)c12 [Example 871, (R)—N-(1-(4-amino-7-(benzo[d]isoxazol-6-yl)pyrrolo[2,1-f][1,2,4]triazin-5-yl)piperidin-3-yl)-5-chlorothiophene-2-carboxamide] | 6 nM |
| CN(C)CCOc1cc(Cl)sc1C(=O)N[C@@H]1CCCN(c2cc(-c3ccc4cnoc4c3)n3ncnc(N)c23)C1 [Example 872, (R)—N-(1-(4-amino-7-(benzo[d]isoxazol-6-yl)pyrrolo[2,1-f][1,2,4]triazin-5-yl)piperidin-3-yl)-5-chloro-3-(2-(dimethylamino)ethoxy)thiophene-2-carboxamide] | 3 nM |
| CC(=O)N1CC=C(c2cc(N3CCC[C@@H](NC(=O)Oc4ccccc4)C3)c3c(N)ncnn23)C1 [Example 873, phenyl (R)-(1-(7-(1-acetyl-2,5-dihydro-1H-pyrrol-3-yl)-4-aminopyrrolo[2,1-f][1,2,4]triazin-5-yl)piperidin-3-yl)carbamate] | 936 nM |
| CC(=O)N1CC=C(c2cc(N3CCC[C@@H](NC(=O)N4CC[C@@H](O)C4)C3)c3c(N)ncnn23)C1 [Example 874, (R)—N—((R)-1-(7-(1-acetyl-2,5-dihydro-1H-pyrrol-3-yl)-4-aminopyrrolo[2,1-f][1,2,4]triazin-5-yl)piperidin-3-yl)-3-hydroxypyrrolidine-1-carboxamide] | 482 nM |
| CC(=O)N1CC=C(c2cc(N3CCC[C@@H](NC(=O)N4CC[C@H](O)C4)C3)c3c(N)ncnn23)C1 [Example 875, (S)-N-((R)-1-(7-(1-acetyl-2,5-dihydro-1H-pyrrol-3-yl)-4-aminopyrrolo[2,1-f][1,2,4]triazin-5-yl)piperidin-3-yl)-3-hydroxypyrrolidine-1-carboxamide] | 477 nM |
| CC(=O)N1CC=C(c2cc(N3CCC[C@@H](NC(=O)N4CCCC4)C3)c3c(N)ncnn23)C1 [Example 876, (R)-N-(1-(7-(1-acctyl-2,5-dihydro-1H-pyrrol-3-yl)-4-aminopyrrolo[2,1-f][1,2,4]triazin-5-yl)piperidin-3-yl)pyrrolidine-1-carboxamide] | 264 nM |
| CC(=O)N1CC=C(c2cc(N3CCC[C@@H](NC(=O)c4ccon4)C3)c3c(N)ncnn23)C1 [Example 879, (R)—N-(1-(7-(1-acetyl-2,5-dihydro-1H-pyrrol-3-yl)-4-aminopyrrolo[2,1-f][1,2,4]triazin-5-yl)piperidin-3-yl)isoxazole-3-carboxamide] | 149 nM |
| Nc1ncnn2c(C3=CCN(C(=O)c4nccs4)C3)cc(N3CCC[C@@H](NC(=O)c4ccc(Cl)s4)C3)c12 [Example 880, (R)—N-(1-(4-amino-7-(1-(thiazole-2-carbonyl)-2,5-dihydro-1H-pyrrol-3-yl)pyrrolo[2,1-f][1,2,4]triazin-5-yl)piperidin-3-yl)-5-chlorothiophene-2-carboxamide] | 15 nM |
| NCC(=O)N1CC=C(c2cc(N3CCC[C@@H](NC(=O)c4ccc(Cl)s4)C3)c3c(N)ncnn23)C1 [Example 881, (R)-N-(1-(4-amino-7-(1-glycyl-2,5-dihydro-1H-pyrrol-3-y1)pyrrolo[2,1-f][1,2,4]triazin-5-yl)piperidin-3-y1)-5-chlorothiophene-2-carboxamide] | 7 nM |
| Nc1ncnn2c(C3=CCN(C(=O)c4ccon4)C3)cc(N3CCC[C@@H](NC(=O)c4ccc(Cl)s4)C3)c12 [Example 882, (R)-N-(1-(4-amino-7-(1-(isoxazole-3-carbonyl)-2,5-dihydro-1H-pyrrol-3-yl)pyrrolo[2,1-f][1,2,4]triazin-5-y1)piperidin-3-y1)-5-chlorothiophene-2-carboxamide] | 1 nM |
| NCCC(=O)N1CC=C(c2cc(N3CCC[C@@H](NC(=O)c4ccc(Cl)s4)C3)c3c(N)ncnn23)C1 [Example 883, (R)-N-(1-(4-amino-7-(1-(3-aminopropanoy1)-2,5-dihydro-1H-pyrrol-3-yl)pyrrolo[2,1-f][1,2,4]triazin-5-y1)piperidin-3-y1)-5-chlorothiophene-2-carboxamide] | 6 nM |
| Cc1nc(-c2cc(C(=O)N3CC=C(c4cc(N5CCC[C@@H](NC(=O)c6ccc(Cl)s6)C5)c5c(N)ncnn45)C3)no2)cs1 [Example 884, (R)-N-(1-(4-amino-7-(1-(5-(2-methylthiazol-4-yl)isoxazole-3-carbony1)-2,5-dihydro-1H-pyrrol-3-yl)pyrrolo[2,1-f][1,2,4]triazin-5-y1)piperidin-3-y1)-5-chlorothiophene-2-carboxamide] | 99 nM |
| Nc1ncnn2c(C3=CCN(C(=O)c4ccns4)C3)cc(N3CCC[C@@H](NC(=O)c4ccc(Cl)s4)C3)c12 [Example 885, (R)-N-(1-(4-amino-7-(1-(isothiazole-5-carbonyl)-2,5-dihydro-1H-pyrrol-3-yl)pyrrolo[2,1-f][1,2,4]triazin-5-y1)piperidin-3-y1)-5-chlorothiophene-2-carboxamide] | 8 nM |
| Nc1ncnn2c(C3=CCN(C(=O)c4cncs4)C3)cc(N3CCC[C@@H](NC(=O)c4ccc(Cl)s4)C3)c12 [Example 886, (R)-N-(1-(4-amino-7-(1-(thiazole-5-carbonyl)-2,5-dihydro-1H-pyrrol-3-yl)pyrrolo[2,1-f][1,2,4]triazin-5-yl)piperidin-3-y1)-5-chlorothiophene-2-carboxamide] | 4 nM |
| Nc1ncnn2c(C3=CCN(C(=O)c4ncco4)C3)cc(N3CCC[C@@H](NC(=O)c4ccc(Cl)s4)C3)c12 [Example 887, (R)-N-(1-(4-amino-7-(1-(oxazole-2-carbonyl)-2,5-dihydro-1H-pyrrol-3-y1)pyrrolo[2,1-f][1,2,4]triazin-5-y1)piperidin-3-y1)-5-chlorothiophene-2-carboxamide] | 8 nM |

same assay, conditions: SGK1 IC50, Assay A; 20 μM ATP, 40 min incubation

| Compound | IC50 |
| --- | --- |
| CC(=O)N1CC=C(c2cc(N3CCC[C@@H](NC(=O)c4cccc(S(=O)(=O)F)c4)C3)c3c(N)ncnn23)C1 [Example 869, (R)-3-((1-(7-(1-acetyl-2,5-dihydro-1H-pyrrol-3-yl)-4-aminopyrrolo[2,1-f][1,2,4]triazin-5-yl)piperidin-3-yl)carbamoyl)benzenesulfonyl fluoride] | 125 nM |
| CC(=O)N1CC=C(c2cc(N3CCC[C@@H](NC(=O)c4ccc(S(=O)(=O)F)cc4)C3)c3c(N)ncnn23)C1 [Example 870, (R)-4-((1-(7-(1-acetyl-2,5-dihydro-1H-pyrrol-3-yl)-4-aminopyrrolo[2,1-f][1,2,4]triazin-5-yl)piperidin-3-yl)carbamoyl)benzenesulfonyl fluoride] | 32 nM |
